Reference: publication PMC12410356 (International Journal for Parasitology: Drugs and Drug …, 2025)

Legend:
[1] = system: E. multilocularis metacestode vesicles; experiment: Phosphoglucose isomerase (PGI) release assay (damage-marker release) on metacestode vesicles; assay type: cell-based, Echinococcus multilocularis; conditions: 10 μM; for PGI d5 (relative PGI release): 5 days; for PGI d12 (relative PGI release): 12 days
Experimental: In order to quantify the drug-induced damage on whole metacestode vesicles, phosphoglucose isomerase (PGI) assay was performed as described previously ([Stadelmann et al., 2010]) with few adaptations published recently ([Kaethner et al., 2023]). In short, 8 to 12 weeks-old metacestode vesicles were purified using 2 % sucrose with subsequent washes in PBS. Metacestode vesicles were diluted in two volumes of DMEM without phenol red containing penicillin (100 U/mL) and streptomycin (100 μg/mL). […] 0.1 % DMSO was used as a negative solvent control and 0.1 % Triton X-100 was used as a positive total damage control. Metacestode vesicles were incubated under a humid, 5 % CO2 atmosphere at 37 °C. After five and twelve days, supernatant was taken and pictures were made using a Nikon SMZ18 stereo microscope (Nikon, Basel, Switzerland) at 7.5 × magnification. PGI activity in the supernatants was measured on a HIDEX Sense microplate reader (Hidex, Turku, Finland). The corresponding values of the DMSO controls were subtracted from the values of the compounds and then PGI activity was calculated relative to 0.1 % Triton X-100. […] IC50 values were calculated applying the 3 parameter Weibull type 1 in R for each of the three independent experiments ([Ritler et al., 2020]).

[2] = system: E. multilocularis metacestode vesicles; experiment: Metacestode vesicle viability assay (ATP, CellTiter-Glo); assay type: cell-based, Echinococcus multilocularis
Experimental: Viability was assessed after 12 days using the same metacestode vesicles as for the PGI release assay. Triton X-100 was added to each well to a final concentration of 0.1 %. Subsequently the metacestode vesicles were broken mechanically and 50 μL of the supernatant was mixed with 50 μL of CellTiter-Glo® buffer (Promega, Dübendorf, Switzerland). Measurements were performed on a HIDEX Sense microplate reader.

[3] = overview screen, singlets, relative to 0.1 % Triton X-100, DMSO subtracted
[4] = overview screen, 10 μM, singlets, 12 days, relative to DMSO control
[5] = confirmation screen, triplicates, mean
[6] = confirmation screen, 10 μM, triplicates, mean, 12 days

Row | Compound | PGI d5 (relative PGI release) [1, 3] [%] | PGI d12 (relative PGI release) [1, 3] [%] | Viability d12 (relative viability) ([2]; 10 µM) [%] | Viability d12 (relative viability) [2, 4] [%] | PGI d5 (relative PGI release) [1, 5] [%] | PGI d12 (relative PGI release) [1, 5] [%] | Viability d12 (relative viability) [2, 6] [%]
1 | CC(C)(C)NC(=O)[C@@H]1C[C@@H]2CCCC[C@@H]2CN1C[C@@H](O)[C@H](Cc1ccccc1)NC(=O)[C@H](CC(N)=O)NC(=O)c1ccc2ccccc2n1 [MMV637879] | -0.1506 | -17.9883 | 108.384 |  |  |  | 
2 | C=C(C)[C@@H]1CC[C@]2(C(=O)O)CC[C@]3(C)[C@H](CC[C@@H]4[C@@]5(C)CC[C@H](O)C(C)(C)[C@@H]5CC[C@]43C)[C@@H]12 [MMV638198] | -0.508 | -0.6563 |  | 121.139 |  |  | 
3 | COC1CC2CCC(C)C(O)(O2)C(=O)C(=O)N2CCCCC2C(=O)OC(C(C)CC2CCC(OCCO)C(OC)C2)CC(=O)C(C)/C=C(\C)C(O)C(OC)C(=O)C(C)CC(C)/C=C/C=C/C=C/1C (stereo not drawn) [MMV639951] | -0.3944 | -20.0049 |  | 85.7507 |  |  | 
4 | O=C(O)c1ccc(-n2nc(-c3ccccc3O)nc2-c2ccccc2O)cc1 [MMV640014] | -1.416 | -24.5374 |  | 145.619 |  |  | 
5 | Oc1cccc(C(Nc2nccs2)c2ccc3cccnc3c2O)c1 (stereo not drawn) [MMV642550] | 8.475 | 88.2133 |  | 17.7096 | 0.17 | 0.81 | 142.26
6 | Cn1cncc1[C@@](N)(c1ccc(Cl)cc1)c1ccc2c(c1)c(-c1cccc(Cl)c1)cc(=O)n2C [MMV658803] | 0.7883 | -2.529 |  | 92.252 |  |  | 
7 | CC(C)=CCC/C(C)=C\CNCCNC1C2CC3CC(C2)CC1C3 (stereo not drawn) [MMV687273] | 0.6754 | -4.6575 |  | 47.5933 |  |  | 
8 | CCc1nc2ccc(Cl)cn2c1C(=O)NCc1ccc(N2CCC(c3ccc(OC(F)(F)F)cc3)CC2)cc1 [MMV687696] | -3.859 | -6.627 |  | 83.8288 |  |  | 
9 | CC(C)N=c1cc2n(-c3ccc(Cl)cc3)c3ccccc3nc-2cc1Nc1ccc(Cl)cc1 [MMV687800] | 10.9227 | 104.553 |  | 4.175 | 0.81 | 1.29 | 142.49
10 | CC[C@H](CO)NCCN[C@H](CC)CO [MMV687801] | -2.724 | 9.893 |  | 117.919 |  |  | 
11 | O=[N+]([O-])c1cn2c(n1)OC[C@@H](OCc1ccc(OC(F)(F)F)cc1)C2 [MMV688755] | -1.0977 | -12.4687 |  | 91.4293 |  |  | 
12 | CC(=O)NC[C@H]1CN(c2ccc(N3CCSCC3)c(F)c2)C(=O)O1 [MMV688756] | -1.412 | -2.526 |  | 97.3563 |  |  | 
13 | O=C(NCc1ncc(C(F)(F)F)cc1Cl)c1c(Cl)cccc1Cl [MMV689401] | -2.654 | -25.1085 |  | 22.5442 |  |  | 
14 | COc1nc2ccc(Br)cc2cc1[C@@H](c1ccccc1)[C@@](O)(CCN(C)C)c1cccc2ccccc12 [MMV689758] | -2.925 | -4.755 |  | 111.826 |  |  | 
15 | Cc1cc(CCCOc2c(C)cc(-c3noc(C(F)(F)F)n3)cc2C)on1 [MMV690467] | 0.4162 | 0.2856 |  | 74.4224 |  |  | 
16 | COc1ccccc1CN[C@H]1C2CCN(CC2)[C@H]1C(c1ccccc1)c1ccccc1 [MMV690480] | -0.6012 | -18.8913 |  | 61.0456 |  |  | 
17 | Nc1nc(=O)c(Br)c(-c2ccccc2)[nH]1 [MMV690540] | 2.1344 | 38.5177 |  | 20.6612 | 0.19 | 1.01 | 98.22
18 | CCOCc1nc2c(N)nc3ccccc3c2n1CC(C)(C)O [MMV690547] | 0.01909 | 53.3537 |  | 9.628 | 0.18 | 0.96 | 159.08
19 | FC(F)(F)c1cc(C(F)(F)F)c2ccc3nc(-c4nnco4)cn3c2n1 [MMV690555] | 0.9496 | 0.5886 |  | 300.676 |  |  | 

Row | Compound | PGI d5 (relative PGI release) [1, 3] [%] | PGI d12 (relative PGI release) [1, 3] [%] | Viability d12 (relative viability) ([2]; 10 µM) [%] | Viability d12 (relative viability) [2, 4] [%] | PGI d5 (relative PGI release) [1, 5] [%] | PGI d12 (relative PGI release) [1, 5] [%] | Viability d12 (relative viability) [2, 6] [%]
20 | O=C(NC1CCCc2c1[nH]c1ccc(Cl)cc21)c1ccccn1 (stereo not drawn) [MMV690621] | 0.1463 | -17.1395 | 144.507 |  |  |  | 
21 | O=C(NO)C1(CS(=O)(=O)c2ccc(Oc3ccc(Cl)cc3)cc2)CCOCC1 [MMV690706] | 0.06885 | -1.025 |  | 178.089 |  |  | 
22 | CN(C)CCNC(=O)c1cccc2cccnc12 [MMV811071] | 0.8254 | 33.0305 |  | 78.9047 |  |  | 
23 | CCc1ccc(C2CC(C(F)(F)F)n3ncc(C(=O)NCc4ccc(OC)cc4)c3N2)cc1 (stereo not drawn) [MMV831201] | -0.786 | -0.2956 |  | 124.843 |  |  | 
24 | Nc1cc(-c2nc3ccccc3[nH]2)n[nH]c1=O [MMV975972] | 0.8096 | -4.832 |  | 175.408 |  |  | 
25 | O=C1C=C(c2ccccc2)S(=O)(=O)c2ccccc21 [MMV1006203] | 0.2239 | 0.7153 |  | 120.957 |  |  | 
26 | CC(C)Oc1cccc(NC(=O)c2ccccc2C(F)(F)F)c1 [MMV1009286] | -2.405 | -25.3832 |  | 77.2348 |  |  | 
27 | O=C(c1ccc(F)cc1)N1CCN2C(=O)c3ccccc3C12c1ccccc1 (stereo not drawn) [MMV1165877] | 6.429 | 52.7291 |  | 23.1723 | 0.55 | 0.41 | 130.42
28 | CC(C)(C)c1ccc(Oc2ccc(N)cc2)cc1 [MMV1174026] | -0.5482 | 16.4911 |  | 305.195 |  |  | 
29 | CC(C)(C)c1cc(CCC(=O)N2CCC2)cc(C(C)(C)C)c1O [MMV1229204] | -1.987 | -10.8726 |  | 39.6611 |  |  | 
30 | O=C(NCc1ccccc1Cl)c1cnc2ccccc2n1 [MMV1230557] | -1.462 | -11.048 |  | 58.5314 |  |  | 
31 | O=C(NCc1ccc2c3c(cccc13)C(=O)N2)c1cccs1 [MMV1341773] | -1.3816 | -12.533 |  | 18.2024 |  |  | 
32 | COc1c(F)c(F)cc2c(=O)c(C(=O)O)cn(C3CC3)c12 [MMV1480967] | 0.2423 | -3.0894 |  | 115.193 |  |  | 
33 | COc1ccc(NC(=O)CC2Sc3ncnn3C2=O)cc1 (stereo not drawn) [MMV1483032] | 0.1451 | -11.504 |  | 68.4676 |  |  | 
34 | O=S(=O)(Nc1ccc(-n2cccc2)cc1)c1ccc(Cl)c(Cl)c1 [MMV1505642] | -0.09064 | -9.692 |  | 76.9008 |  |  | 
35 | CC1(C)Cc2c(C#N)c(SCCc3ccccc3)nc(N3CCOCC3)c2CO1 [MMV1549626] | -2.265 | -14.2052 |  | 93.3497 |  |  | 
36 | CC[C@H](NC(=O)[C@H](C)NC)C(=O)N1C[C@@H](O)C[C@H]1Cc1c(-c2[nH]c3cc(F)ccc3c2C[C@@H]2C[C@H](O)CN2C(=O)[C@H](CC)NC(=O)[C@H](C)NC)[nH]c2cc(F)ccc12 [MMV1557856] | -1.122 | -0.1165 |  | 106.397 |  |  | 
37 | O=C1NC(=O)C(Br)=C1Br [MMV1578554] | 3.162 | 5.51 |  | 135.147 |  |  | 
